Experiments:
[1] = tested on: 4T1 (mouse mammary carcinoma) cells; assay: MTT cell viability assay, 4T1; type: cell-based; settings: 24 h and 48 h; 2.5, 5, 7.5 or 10 μM; vs untreated control
Protocol: The cells were seeded into 96-well plates at a starting density of 10^4 cells per well and cultured overnight before DEA was added to the medium for 24 h and 48 h. […] The amount of blue formazan dye formed from MTT+ was proportional to the number of live cells, and was determined with an Anthos Labtech 2010 ELISA reader at 550 nm. All experiments were run in at least 4 replicates and repeated 3 times. The effect of desethylamiodarone was measured in T24 (human urinary bladder carcinoma), A549 (human lung adenocarcinoma epithelial), B16F10 (mice melanoma), HeLa (human cervix adenocarcinoma), 4T1 (mouse mammary carcinoma) cell lines. Cells were treated with increasing concentrations of desethylamiodarone for 24 and 48 h. Cell growth was assessed by measuring metabolic activity, which reflects viability in the MTT-test in the course of 24 h, 48 h of continued exposure to desethylamiorarone. The untreated cells served as negative controls. The viability of the cells, was lower in all DEA-treated than in the control group, with the difference being statistically significant. […] 4T1 cells were incubated with the indicated concentrations (2.5, 5, 7.5 or 10 μM) of desethylamiodarone for 24 h and 48 h and cell viability was measured by MTT assay (filled bars). Untreated cells served as controls. Data represent means±S.E.M. of three independent experiments, each running in four replicates.

[2] = tested on: A549 human lung adenocarcinoma epithelial cell line; assay: Colony formation assay, A549; type: cell-based; settings: one week; 1, 1.5, 2, 2.5 or 3 μM
Protocol: (§1) Cells were trypsinized and plated in triplicate into 6-well plates at 500 cells/well. Cells were treated with different concentration of Dea. After 7 days of incubation, cells were washed and stained with Coomassie-blue, and the colonies containing more than 50 cells were counted. The number of colonies were determined and normalized to the number of colonies in controls. To assess the recovery ability of cells that survived treatment, long-term (7 days) colony formation assay was performed. […] A549 cells were incubated with the indicated concentrations of desethylamiodarone (1, 1.5, 2, 2.5 or 3 μM for one week and cell colonies were fixed, stained and counted. (A-B) Data are expressed as the mean±SD of ≧3 experiments; a p<0.01 is considered statistically significant.

[3] = tested on: HeLa human cervix adenocarcinoma cell line; assay: Radiotherapy plus DEA, colony formation, HeLa; type: cell-based; settings: 1Gy or 2Gy single dose alone or with 500 nM-3 μM DEA
Protocol: Cells were trypsinized and plated in triplicate into 6-well plates at 500 cells/well. Cells were treated with different concentration of DEA and irradiated with a dose of 1.0 and 2.0 Grays. A telecobalt (Therathron 780 C) external irradiation equipment (average photon energy of 1.25 MeV) will be applied for irradiating cells. After 7 days of incubation, cells were washed and stained with Coomassie-blue, and the colonies containing more than 50 cells were counted. The number of colonies were determined and normalized to the number of colonies in controls.
To examine the effects of a DEA on the effectiveness of radiotherapy the cells were treated with 1Gy or 2Gy single dose irradiation alone or combined with 500 nM-3 μM DEA.
The cells were treated with 1Gy or 2Gy single dose irradiation alone or combined with 500 nM-3 μM DEA. Untreated cells served as controls. The results are mean±SEM of 3 independent experiments performed in at least quadruplicate. p<0.05, compared to the corresponding control group.

[4] = tested on: B16F10 mice melanoma cell line; assay: Colony formation assay, B16F10; type: cell-based; settings: one week; 1, 1.5, 2, 2.5 or 3 μM
Protocol: as §1, with “B16F10” for “A549”, “significant. The data shown on FIG. 6 provide evidence that DEA can be useful to treat melanoma.” for “significant.”

[5] = tested on: A549 (human lung adenocarcinoma epithelial) cells; assay: MTT cell viability assay, A549; type: cell-based; settings: increasing concentrations, 24 and 48 h
Protocol: The cells were seeded into 96-well plates at a starting density of 10^4 cells per well and cultured overnight before DEA was added to the medium for 24 h and 48 h. The medium was changed to a fresh one containing 0.5% of 3-[4,5-dimethylthiazol-2-yl]-2,5-diphenyl-tetrazolium bromide (MTT+) for an additional 3 hours, then the MTT+ reaction was terminated by adding HCl to 10 mM final concentration. The amount of blue formazan dye formed from MTT+ was proportional to the number of live cells, and was determined with an Anthos Labtech 2010 ELISA reader at 550 nm. All experiments were run in at least 4 replicates and repeated 3 times.
The effect of desethylamiodarone was measured in T24 (human urinary bladder carcinoma), A549 (human lung adenocarcinoma epithelial), B16F10 (mice melanoma), HeLa (human cervix adenocarcinoma), 4T1 (mouse mammary carcinoma) cell lines. Cells were treated with increasing concentrations of desethylamiodarone for 24 and 48 h. Cell growth was assessed by measuring metabolic activity, which reflects viability in the MTT-test in the course of 24 h, 48 h of continued exposure to desethylamiorarone. The untreated cells served as negative controls. The viability of the cells, was lower in all DEA-treated than in the control group, with the difference being statistically significant.

[6] = cited from earlier work

**Q.** Which results are given for `CCCCc1oc2ccccc2c1C(=O)c1cc(I)c(OCCNCC)c(I)c1` [DEA, (2-butyl-3-benzofuranyl)[4-[2-(ethylamino)ethoxy]-3,5-diiodophenyl]-methanone]?
**A.** Viability of 4T1 cells (MTT) [1]: Significantly different from control group at p<0.05; Colony formation, A549 [2]: significant decrease in the number and the size of colonies; Radiosensitization, colony formation, HeLa [3]: sensitize cervix cancer to irradiation; Colony formation, B16F10 [4]: significant decrease in the number and the size of colonies; Viability of A549 cells (MTT) [5]: significantly inhibited the viability; Plasma protein binding [6]: strongly bound to plasma proteins

— patent US9884040B2, “Desethylamiodarone for use in cancer treatment” (PÉCSI TUDOMÁNYEGYETEM, priority 2015, dated 2018)
